Literature values, collected in paper PMC6329039 (Molecular Pain, 2019).

Test system: STAT3
Conditions: thermal shift assays ref 33

CN(CC(=O)N(Cc1ccc(C2CCCCC2)cc1)c1ccc(C(=O)O)c(O)c1)S(=O)(=O)c1c(F)c(F)c(F)c(F)c1F [BP-1–102]
binding to and degradation of STAT3: specifically bind to and induce the degradation of STAT3
